From US6525099B1, “N-substituted sulfonamide derivatives” (Eli Lilly and Company, priority 1998, dated 2003) come the findings set out here.

One data set has as its target T1, human GluR4B receptor (Homo sapiens, UniProt P48058).
T1 construct: expressed in transfected cells
The data set is described as follows: potentiation of glutamate receptor-mediated response in HEK cells stably expressing human GluR4B (Fluo-3 calcium fluorescence). The format is cell-based. As to conditions: human GluR4B receptor expressed in HEK 293 cells. The source says:
The ability of compounds of formula I to potentiate glutamate receptor-mediated response may be determined using fluorescent calcium indicator dyes (Molecular Probes, Eugene, Oreg., Fluo-3) and by measuring glutamate-evoked efflux of calcium into GluR4 transfected HEK293 cells, as described in more detail below.
In one test, 96 well plates containing confluent monolayers of HEK cells stably expressing human GluR4B (obtained as described in European Patent Application Publication Number EP-A1-583917) are prepared. The tissue culture medium in the wells is then discarded, and the wells are each washed once with 200 μl of buffer (glucose, 10 mM, sodium chloride, 138 mM, magnesium chloride, 1 mM, potassium chloride, 5 mM, calcium chloride, 5 mM, N-[2-hydroxyethyl]-piperazine-N-[2-ethanesulfonic acid], 10 mM, to pH 7.1 to 7.3). […]
Each test is then performed as follows. […] A second fluorescent reading is taken after 5 minutes incubation. 15 μl of 400 μM glutamate solution is then added to each well (final glutamate concentration 100 μM), and a third reading is taken. The activities of test compounds and cyclothiazide solutions are determined by subtracting the second from the third reading (fluorescence due to addition of glutamate in the presence or absence of test compound or cyclothiazide) and are expressed relative to enhance fluorescence produced by 100 μM cyclothiazide.

T1 sequence (P48058 21-902): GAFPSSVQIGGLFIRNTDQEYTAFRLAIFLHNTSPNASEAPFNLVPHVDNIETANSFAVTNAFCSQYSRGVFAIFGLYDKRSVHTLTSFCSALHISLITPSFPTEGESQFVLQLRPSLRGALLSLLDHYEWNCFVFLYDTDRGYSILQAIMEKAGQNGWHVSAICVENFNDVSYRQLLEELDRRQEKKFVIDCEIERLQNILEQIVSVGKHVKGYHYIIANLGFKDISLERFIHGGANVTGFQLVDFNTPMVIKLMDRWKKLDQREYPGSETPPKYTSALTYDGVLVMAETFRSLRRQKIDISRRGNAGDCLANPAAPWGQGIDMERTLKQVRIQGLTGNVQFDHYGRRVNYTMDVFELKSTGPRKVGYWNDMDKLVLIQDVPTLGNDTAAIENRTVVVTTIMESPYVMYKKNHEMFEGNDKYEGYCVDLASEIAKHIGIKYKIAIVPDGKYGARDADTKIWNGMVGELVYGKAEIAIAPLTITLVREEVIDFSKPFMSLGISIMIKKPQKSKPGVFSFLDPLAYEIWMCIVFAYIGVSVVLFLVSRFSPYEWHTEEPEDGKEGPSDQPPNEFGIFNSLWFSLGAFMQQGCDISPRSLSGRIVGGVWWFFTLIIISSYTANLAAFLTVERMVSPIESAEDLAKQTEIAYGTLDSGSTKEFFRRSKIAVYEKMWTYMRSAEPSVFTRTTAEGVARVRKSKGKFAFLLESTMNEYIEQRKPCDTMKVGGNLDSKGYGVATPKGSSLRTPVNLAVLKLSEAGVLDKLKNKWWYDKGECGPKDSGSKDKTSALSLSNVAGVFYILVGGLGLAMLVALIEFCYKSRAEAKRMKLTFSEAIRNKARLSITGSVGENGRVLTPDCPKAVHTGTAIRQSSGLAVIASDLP

On to `NS(=O)(=O)c1cc2c(cc1Cl)NC(C1CC3C=CC1C3)NS2(=O)=O` (stereo not drawn) [cyclothiazide], for which, on human GluR4B receptor, the “potentiation of agonist-induced excitability” value is listed as “potentiate agonist-induced excitability of human GluR4B receptor”.
As for `CC(C)(C)c1ccc(C2(CNS(=O)(=O)C(F)(F)F)CC2)cc1`, the melting point was 82 to 84 °C.
Still for that read-out and setting: the figure for `CC(C)S(=O)(=O)NCC1(c2ccc(C(C)(C)C)cc2)CC1` is 87 to 89.5 °C.

For orientation: melting point means the temperature of the solid-liquid transition.
